Assay results published in patent EP0209274A2, “Furanone derivatives” (ELI LILLY AND COMPANY, priority 1985, dated 1987).

Columns and labels:
[1] = target: Pancreatic phospholipase A2 (Homo sapiens, UniProt P04054); experiment: Phospholipase A2 (PLA2) Assay; format: biochemical; conditions: 30 µg/ml test compound; inhibition of 14C-free fatty acid formation
Procedure: The assay buffer contained 10 mM Tris-HCl buffer, pH 8.0, 100 mM NaCl, 1 mM CaCl2 and 1 mg/ml of bovine serum albumin. A toluene-ethanol (1:1 v/v) solution of phosphatidiylcholine, L-a-dipalmitoyl-(2-palmitoyl-1-^14C) obtained from New England Nuclear was evaporated to dryness in a flask under nitrogen and the assay buffer was added to give a substrate concentration of 9.0 x 10^-5M (specific activity = 27.7 mCi/mmol). The mixture was sonicated for 5 minutes in a Bransonic 220 Sonication Bath. Pancreatic phospholipase A2 (specific activity = 600 units/mg) was diluted with the assay buffer to give an enzyme concentration of 0.1 mg/ml. […] To initiate the enzyme reaction, 0.1 ml of the mixture containing the substrate was added to the enzyme solution and the reaction mixture was further incubated for 30 minutes at 37°C. The reaction was then terminated by the addition of 20 µl of 1M citric acid.
Fifty µl of the mixture was added to 10 ml of scintillation fluid [5.88 g of 2,5-diphenyl-oxazole and 118 mg of 1,4-bis(5-phenyloxazol-2-yl)benzene] dissolved in 650 ml of toluene and 350 ml of Triton X-100) and the radioactivity was determined in an Isocap/300 liquid scintillation counter (Searle Analytic Inc., Southfield, Michigan). Another 50 µl of the mixture was applied directly onto the spotting area of a silica gel plate (LK6D, Whatman, Clifton, N.J.) and subjected to thin layer chromatography in a solvent system of ethyl acetate:acetic acid:2,2,4-trimethylpentane:H20 (90:20:50:100, v/v/v). The silica gel on the plate was scraped in 1 cm sections, suspended in 5 ml of the Triton X-100 based scintillation fluid and the radioactivity was determined. Phosphatidylcholine remained at the origin while fatty acids migrated to a few centimeters (2-3 cm) below the solvent front. The percent of ^14C-free fatty acid formed with the test compound added was calculated as compared to the amount formed in control experiments where no test compound was added. […]

[2] = target: T1, fatty acid cyclooxygenase (Homo sapiens, UniProt P23219); experiment: Fatty Acid Cyclooxygenase (FCO) Assay; format: biochemical; conditions: 30 µg/ml test compound; inhibition of formation of PGE2; enzyme from human platelets
T1 construct: Microsomes were prepared from 185 bags of human platelets; from tissue; host or cells: human platelets (solubilized microsomes, then electrofocusing and Sephadex G-200)
T1 sequence (P23219 24-599): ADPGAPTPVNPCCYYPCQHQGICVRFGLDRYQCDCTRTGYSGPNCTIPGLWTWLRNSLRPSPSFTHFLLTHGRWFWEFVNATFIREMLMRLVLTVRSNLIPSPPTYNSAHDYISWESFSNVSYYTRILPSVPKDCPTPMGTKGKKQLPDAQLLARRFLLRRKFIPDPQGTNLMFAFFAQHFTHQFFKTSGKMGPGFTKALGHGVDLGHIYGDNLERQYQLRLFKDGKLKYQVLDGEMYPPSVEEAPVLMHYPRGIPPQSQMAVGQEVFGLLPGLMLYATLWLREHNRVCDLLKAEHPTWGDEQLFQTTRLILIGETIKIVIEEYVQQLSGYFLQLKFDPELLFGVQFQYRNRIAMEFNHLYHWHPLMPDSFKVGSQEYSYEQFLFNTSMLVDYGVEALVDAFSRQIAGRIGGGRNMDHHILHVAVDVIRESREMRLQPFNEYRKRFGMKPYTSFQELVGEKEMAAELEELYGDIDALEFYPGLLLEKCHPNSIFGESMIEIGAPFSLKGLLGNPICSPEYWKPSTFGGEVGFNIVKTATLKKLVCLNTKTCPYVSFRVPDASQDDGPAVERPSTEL
Procedure: Microsomes were prepared from 185 bags of human platelets (each bag containing the platelets from one pint of blood prepared using differential centrifugation procedures). The platelets from approximately 60 bags were prepared at one time. Platelet-rich plasma (500 g) was centrifuged at 10,000 x g for 20 minutes, and the platelet pellet was suspended in 100 ml of 0.1M. potassium phosphate buffer, pH 8.0, with a Teflon glass homogenizer and sonicated for 5.0 minutes with a Bronson Sonifier (Model 350) in a rosette flask cooled in ice water. Disrupted platelets were centrifuged 15 minutes at 10,000 x g. The supernatant was centrifuged at 100,000 x g for 90 minutes and the microsomal pellets were homogenized in 25 ml of 20% sucrose containing 1.0% Triton X-100 detergent. After 30 minutes at 4°C, the solubilized microsomes were centrifuged at 100,000 x g for 60 minutes. The yellow supernatant was removed and stored at -70°C.
The solubilized fatty acid cyclooxygenase was applied to a 440 ml electrofocusing column (LKB-8012) containing 1% phisolytes (Brinkman Instruments, Westburgh, NY), pH 2-11, with the cathode at the top of the column. The enzyme was layered onto the column at the appropriate time so that its sucrose concentration was equal to that of the column gradient. This was accomplished by checking the gradient concentration periodically with a sucrose hand refractometer. Electrofocusing was carried out for 16 hours with an initial voltage of 400 V and a final voltage of 900-1,000 volts. Fractions were collected (20 ml) and assayed for PGE2 formation. Active peak fractions were pooled and concentrated by ultrafiltration (XM 100A) to a volume of 3-5 ml.
Active fractions from electrofocusing were applied to a G-200 Sephadex column (2 cm x 46 cm) and eluted with 10 mM potassium phosphate buffer, pH 7.0, in 5 ml fractions. After assay, active fractions were pooled and concentrated to 1.0 ml by ultrafiltration (XM 100A), and kept frozen at -70°C.
Enzyme activity was determined by assaying for PGE2 formation by preincubating the enzyme with 10 mmol/l imidazole phosphate buffer, pH 8.0, 2 mmol/l epinephrine, 2 mmol/1 methemoglobin, and the test compound (30 pg/ml) in a total volume of 0.2 ml for one minute at 37°C. After preincubation, 5 mmol/1 ^14C-arachidonic acid were added and the mixture was incubated an additional 0.5 minutes at 37°C. The enzyme reaction was stopped by the addition of 20 µl of indomethacin (2 mg/ml) in alcohol.
The reaction mixture was spotted (50 pl) on a silica gel (LQ6D) plate and subjected to TLC. The solvent system consisted of chloroform-methanol-glacial acetic acid (90:5:5, v/v/v) and the relative mobilities were PGF2a = 0.235, and PGE2 = 0.47. The silica gel on the plate was scraped in 1 cm sections, suspended in 5 ml of the scintillation fluid [5.88 g of 2,5-diphenyl-oxazole and 118 mg of 1,4-bis(5-phenyloxazol-2-yl)benzene] dissolved in 650 ml of toluene and 350 ml of Triton X-100) and the radioactivity was determined in an Isocap/300 liquid scintillation counter (Searle Analytic, Inc., Southfield, MI). Another 50 µl of the mixture was added to 10 ml of the Triton X-100 based scintillation fluid, and the radioactivity was determined so that the amount of radioactivity recovery from the TLC plate could be ascertained. PGE2 formation for each test compound was determined as a percent of control experiments wherein no test compound was added. Data is expressed in Table I as the percent inhibition of formation of PGE2 at a test compound concentration of 30 pg/ml.

Sequence of Pancreatic phospholipase A2 (P04054 23-148): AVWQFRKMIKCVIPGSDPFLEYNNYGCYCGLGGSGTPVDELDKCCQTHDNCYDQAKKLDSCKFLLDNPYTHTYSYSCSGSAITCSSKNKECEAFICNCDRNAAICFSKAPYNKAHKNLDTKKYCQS

| SMILES | inhibition at 30 µg/mL [1] | inhibition at 30 µg/mL [2] |
| --- | --- | --- |
| CCCCC/C=C\C/C=C\CCCCCCC1=CC(=O)OC1O (centres unmarked) [Example 1, (Z,Z)-4-(7,10-hexadecadienyl)-5-hydroxy-2-(5H)-furanone] | 77% | 77% |
| CC/C=C\C/C=C\C/C=C\CCCCCCC1=CC(=O)OC1O (centres unmarked) [Example 2, (Z,Z,Z)-4-(7,10,13-hexadecatrienyl)-5-hydroxy-2(5H)-furanone] | 82% | 75% |
| CCCCC/C=C\C/C=C\C/C=C\C/C=C\CCC1=CC(=O)OC1O (centres unmarked) [Example 3, (Z,Z,Z,Z)-5-hydroxy-4-(3,6,9,12-octa-decatetraenyl)-2(5H)-furanone] | 41% | 67% |
| CCCCCCCC/C=C/CCCCCCC1=CC(=O)OC1O (centres unmarked) [Example 4, (E)-4-(7-hexadecenyl)-5-hydroxy-2(5H)-furanone] | 0% | 52% |
| CCCCC/C=C\C/C=C\C/C=C\CCCC1=CC(=O)OC1O (centres unmarked) [Example 5, (Z,Z,Z)-4-(4,7,10-hexadecatrienyl)-5-hydroxy-2(5H)-furanone] | 77% | 75% |
| CC/C=C\C/C=C\C/C=C\C/C=C\C/C=C\C/C=C\CC1=CC(=O)OC1O (centres unmarked) [Example 9, (Z,Z,Z,Z,Z,Z)-4-(2,5,8,11,14,17-eicosa-hexaenyl)-5-hydroxy-2(5H)-furanone] | 0% | 46% |
| CCCCCCCC/C=C\CCCCCCC1=CC(=O)OC1O (centres unmarked) [Example 11, (Z)-4-(7-hexadecenyl)-5-hydroxy-2(5H)-furanone] | 51% | 61% |
| O=C1C=C(CCCCOc2ccc3ccccc3c2)C(O)O1 (centres unmarked) [Example 12, 5-Hydroxy-4-[4-(2-naphthalenyloxy)butyl]-2(5H)-furanone] | 72% | 16% |
| CC(C)=CCCC(C)=CCCC(C)=CCCC1=CC(=O)OC1O (centres unmarked) [Example 13, 5-Hydroxy-4-(4,8,12-trimethyl-3,7,11-tri-decatrienyl)-2(5H)-furanone] | 50% | 47% |
| CC(C)=CCC/C(C)=C/CCC1=CC(=O)OC1O (centres unmarked) [Example 14, (E,E)-4-(4,8-dimethyl-3,7-nonadienyl)-5-hydroxy-2(5H)-furanone] | 72% | < 5% |
| CC(C)=CCCC(C)=CCCC(C=O)=CCCC1=CC(=O)OC1O (centres unmarked) [Example 15, 2-[3-(2,5-dihydro-2-hydroxy-5-oxo-3-furanyl)-propylidene]-6,10-dimethyl-5,9-undecadienal] | 88% | 32% |
| O=C1C=C(CCCCCOc2ccccc2Cc2ccccc2)C(O)O1 (centres unmarked) [Example 18, 5-Hydroxy-4-[5-(2-benzylphenoxy)pentyl]-2(5H)-furanone] | 44% | 20% |
| CC(C)=CCCC(C)=CCCC(=CCCC1=CC(=O)OC1O)CO (centres unmarked) [Example 19, 5-Hydroxy-4-[4-(hydroxymethyl)-8,12-dimethyl-3,7,11-tridecatrienyl]-2(5H)-furanone] | 76% | 14% |
